Measurements as given in US4663450A, “Optically active cephalosporin analogs” (Kyowa Hakko Kogyo Co., Ltd., priority 1979, dated 1987).
Values after ≈ are worked out from the molar mass of the structure shown.

Columns and labels:
Experiment in all cases: Heart Infusion Agar Dilution Method, antimicrobial activity
Assay type in all cases: cell-based
[1] = test system: Pseudomonas aeruginosa #1
Source text: (§1) Heart Infusion Agar Dilution Method (pH 7.2) is used.
as §1

Proteus mirabilis 1287 = conditions: pH 7.2, Example 6
Source text: as §1, §1

Escherichia coli NIHJC-2 = conditions: NIHJC2, pH 7.2, Example 6
Source text: as §1, §1

Escherichia coli Juhl = conditions: pH 7.2, Example 6
Source text: as §1, §1

Serratia marcescens T-55 = conditions: T55, pH 7.2, Example 6
Source text: as §1, §1

[2] = test system: Klebsiella pneumoniae 8045; conditions: pH 7.2, Example 6
Source text: as §1, §1

Serratia marcescens T-26 = conditions: T26, pH 7.2, Example 6
Source text: as §1, §1

[3] = test system: Klebsiella pneumoniae Y-60; conditions: Y60, pH 7.2, Example 6
Source text: as §1, §1

Proteus vulgaris 6897 = conditions: pH 7.2, Example 6
Source text: (§2) Antimicrobial activities of the compound obtained in Example 1 are as follows. Heart Infusion Agar Dilution Method (pH 7.2) is used.
(§3) Antimicrobial activities of the compound obtained in Example 4 and 5 are as follows. Heart Infusion Agar Dilution Method (pH 7.2) is used. Cefazolin is used as a control.

[4] = test system: Staphylococcus aureus 209-P; conditions: pH 7.2, Example 6
Source text: as §2, §3

[5] = test system: Escherichia coli GN2411-5; conditions: pH 7.2, Example 6
Source text: as §2, §3

[6] = test system: Staphylococcus epidermidis; conditions: pH 7.2, Example 6
Source text: as §2, §3

[7] = test system: Staphylococcus aureus Smith; conditions: pH 7.2, Example 6
Source text: as §2, §3

Proteus rettgeri KY 4289 = conditions: Providencia rettgeri, KY4289; Proteus retteri KY 4289; pH 7.2; Example 6
Source text: as §2, §3

Pseudomonas putida 264 = conditions: pH 7.2, Example 6
Source text: as §2, §3

[8] = test system: Pseudomonas aeruginosa 145; conditions: pH 7.2, Example 6
Source text: as §2, §3

Proteus morganii KY 4298 = conditions: Morganella morganii, KY4298, pH 7.2, Example 6
Source text: as §2, §3

MIC ([1]; pH 7.2, Example 6) [µg/mL] | MIC (Proteus mirabilis 1287) [µg/mL] | MIC (Escherichia coli NIHJC-2) [µg/mL] | MIC (Escherichia coli Juhl) [µg/mL] | MIC (Serratia marcescens T-55) [µg/mL] | MIC [2] [µg/mL] | MIC (Serratia marcescens T-26) [µg/mL] | MIC [3] [µg/mL] | MIC (Proteus vulgaris 6897) [µg/mL] | MIC [4] [µg/mL] | MIC [5] [µg/mL] | MIC [6] [µg/mL] | MIC [7] [µg/mL] | MIC (Proteus rettgeri KY 4289) [µg/mL] | MIC (Pseudomonas putida 264) [µg/mL] | MIC [8] [µg/mL] | MIC (Proteus morganii KY 4298) [µg/mL] | MIC ([1]; pH 7.2) [µg/mL] | SMILES
0.78 (≈ 1.72 µM) | 0.02 (≈ 0.0441 µM) | 0.78 (≈ 1.72 µM) | 0.4 (≈ 0.882 µM) | 0.4 (≈ 0.882 µM) | 0.2 (≈ 0.441 µM) | 0.78 (≈ 1.72 µM) | 0.2 (≈ 0.441 µM) | ≤ 0.01 | > 100 | 0.2 (≈ 0.441 µM) | > 100 | > 100 | ≤ 0.01 | ≤ 0.01 | 3.12 (≈ 6.88 µM) | 0.1 (≈ 0.221 µM) | – | CC(C)(O/N=C(\C(=O)N[C@@H]1C(=O)N2C(C(=O)O)=C[C@@H](O)C[C@H]12)c1csc(N)n1)C(=O)O [Example 4, (4S, 6R, 7S)-7-[2-(2-amino-4-thiazolyl)-2-syn-(2-carboxyprop-2-oxyimino)acetamido]-4-hydroxy-1-azabicyclo[4,2,0]oct-2-en-8-on-2-carboxylic acid]
– | – | – | – | – | – | – | – | – | – | – | – | – | – | – | – | – | 0.73 (≈ 1.91 µM) | CO/N=C(\C(=O)N[C@@H]1C(=O)N2C(C(=O)O)=C[C@@H](O)C[C@H]12)c1csc(N)n1 [A, (4S, 6R, 7S)-7-[2-(2-amino-4-thiazolyl)-2-syn-methoxyiminoacetamido]-4-hydroxy-1-azabicyclo[4,2,0] oct-2-en-8-on-2-carboxylic acid]
– | – | – | – | – | – | – | – | 50 (≈ 110 µM) | 0.05 (≈ 0.11 µM) | – | – | 0.2 (≈ 0.44 µM) | 12.5 (≈ 27.5 µM) | 50 (≈ 110 µM) | – | – | – | Cc1nnc(SCC2=C(C(=O)O)N3C(=O)[C@@H](NC(=O)Cn4cnnn4)[C@H]3SC2)s1 [Cefazolin, reference compound]
– | 1.56 (≈ 3.39 µM) | 3.12 (≈ 6.78 µM) | 3.12 (≈ 6.78 µM) | – | 0.78 (≈ 1.69 µM) | – | 1.56 (≈ 3.39 µM) | 0.2 (≈ 0.435 µM) | 50 (≈ 109 µM) | 0.78 (≈ 1.69 µM) | 100 (≈ 217 µM) | 50 (≈ 109 µM) | ≤ 0.01 | 0.2 (≈ 0.435 µM) | 25 (≈ 54.3 µM) | 1.56 (≈ 3.39 µM) | – | CO/N=C(\C(=O)N[C@@H]1C(=O)N2C(C(=O)O)=C[C@@H](O)C[C@H]12)c1nc(N)sc1Br [Example 5, (4S, 6R, 7S)-7-[2-(2-amino-5-bromo-4-thiazolyl)-2-syn-methoxyiminoacetamido]-4-hydroxy-1-azabicyclo[4,2,0]oct-2-en-8-on-2-carboxylic acid]
